Laboratory results from patent US20090143279A1 (priority 2007, published 2009).
Read-outs that look alike come from different tables or passages of the source.

Key:
nuOXPHOS transcripts = assay type: cell-based, mouse
[1] = system: cellular dehydrogenase activity
reactive oxygen species = assay type: cell-based, mouse
mtOXPHOS transcripts = assay type: cell-based, mouse
cytochrome c = assay type: cell-based, mouse
[2] = system: mitochondrial membrane potential; assay type: cell-based, mouse
OXPHOS gene expression = assay type: cell-based, mouse
[3] = composite Z-score vs DMSO, Conc 10.24 μM
[4] = composite Z-score vs DMSO, Conc 20 μM
[5] = composite Z-score vs DMSO wells, Conc 20 μM
[6] = composite Z-score vs mock-treated (DMSO) wells, Conc 20 μM
[7] = 18.76 μM, composite Z-score vs DMSO
[8] = 20 μM, composite Z-score vs DMSO
[9] = 13.16 μM, composite Z-score vs DMSO
[10] = Conc 20 μM, normalized score vs mock-treated (DMSO) wells
[11] = Table 5, C2C12 myotubes, 48 h, composite Z-score

Q: `C[N+]1(CCCCC[N+]2(C)CCCC2)CCCC1` [pentolinium] was tested. Which nucOX (nuOXPHOS transcripts; [3]) did it give?
A: The nucOX was 0.489.

Q: And the nucOX (nuOXPHOS transcripts; [4])?
A: Its nucOX is −0.840.

Q: What about the MTT [1, 3] of the same molecule?
A: Its MTT is 0.254.

Q: And the MTT [1, 4]?
A: Its MTT is −0.771.

Q: What about the ROS (reactive oxygen species; [3]) of the same molecule?
A: Its ROS is 3.608.

Q: What about the ROS (reactive oxygen species; [4]) of the same molecule?
A: Its ROS is 0.392.

Q: What about the mitoOX (mtOXPHOS transcripts; [3]) of the same molecule?
A: Its mitoOX is 0.444.

Q: What about the mitoOX (mtOXPHOS transcripts; [4]) of the same molecule?
A: The mitoOX was −1.080.

Q: What about the cyt c (cytochrome c; [3]) of the same molecule?
A: Its cyt c is 0.387.

Q: What about the cyt c (cytochrome c; [4]) of the same molecule?
A: Its cyt c is −0.703.

Q: And the Viability (C2C12 myotubes; [3])?
A: Its Viability is 0.213.

Q: And the Viability (C2C12 myotubes; [4])?
A: Its Viability is −0.568.

Q: And the ΔΨm [2, 3]?
A: The ΔΨm was −0.024.

Q: What about the ΔΨm [2, 4] of the same molecule?
A: The ΔΨm was 0.209.

Q: What about the GE-HTS (OXPHOS gene expression; [3]) of the same molecule?
A: The GE-HTS was 0.521.

Q: And the GE-HTS (OXPHOS gene expression; [4])?
A: Its GE-HTS is −1.000.

Q: Which results are given for `CO[C@H]1[C@H](O)[C@H](O[C@H]2CC[C@@]3(C=O)[C@H](CC[C@@H]4[C@@H]3CC[C@]3(C)[C@@H](C5=CC(=O)OC5)CC[C@]43O)C2)O[C@@H](C)[C@@H]1O` [peruvoside]?
A: nucOX (nuOXPHOS transcripts; [5]): 0.297; MTT [1, 5]: −1.190; ROS (reactive oxygen species; [5]): 0.997; mitoOX (mtOXPHOS transcripts; [5]): 0.324; cyt c (cytochrome c; [5]): 0.075; Viability (C2C12 myotubes; [5]): 0.426; ΔΨm [2, 5]: −0.906; GE-HTS (OXPHOS gene expression; [5]): 0.328

Q: Which results are given for `CC(C)=CCc1c(O)cc2oc(C)cc(=O)c2c1O` [peucenin]?
A: nucOX (nuOXPHOS transcripts; [6]): 0.051; MTT [1, 6]: −1.695; ROS (reactive oxygen species; [6]): −0.014; mitoOX (mtOXPHOS transcripts; [6]): 0.361; cyt c (cytochrome c; [6]): 0.494; Viability (C2C12 myotubes; [6]): −0.906; ΔΨm [2, 6]: −0.057; GE-HTS (OXPHOS gene expression; [6]): 0.148

Q: Which results are given for `CCOc1ccc(NC(C)=O)cc1` [phenacetin]?
A: nucOX (nuOXPHOS transcripts; [5]): 0.833; MTT [1, 5]: 0.760; ROS (reactive oxygen species; [5]): 1.491; mitoOX (mtOXPHOS transcripts; [5]): 0.564; cyt c (cytochrome c): −0.611; cyt c (cytochrome c; [5]): 0.005; Viability (C2C12 myotubes; [5]): 0.665; ΔΨm [2, 5]: −0.255; GE-HTS (OXPHOS gene expression; [5]): 0.811

Q: Which nucOX (nuOXPHOS transcripts; [7]) does the source give for `Nc1ccc(/N=N/c2ccccc2)c(N)n1` [phenazopyridine] here?
A: The nucOX was −0.323.

Q: What about the nucOX (nuOXPHOS transcripts; [8]) of the same molecule?
A: Its nucOX is 0.207.

Q: What about the MTT [1, 7] of the same molecule?
A: Its MTT is −2.094.

Q: What about the MTT [1, 8] of the same molecule?
A: Its MTT is −0.692.

Q: And the ROS (reactive oxygen species; [7])?
A: The ROS was 0.587.

Q: And the ROS (reactive oxygen species; [8])?
A: The ROS was 1.911.

Q: What about the mitoOX (mtOXPHOS transcripts; [7]) of the same molecule?
A: Its mitoOX is −0.930.

Q: And the mitoOX (mtOXPHOS transcripts; [8])?
A: Its mitoOX is 0.544.

Q: And the cyt c (cytochrome c; [7])?
A: Its cyt c is 0.678.

Q: What about the cyt c (cytochrome c; [8]) of the same molecule?
A: The cyt c was 0.335.

Q: And the Viability (C2C12 myotubes; [7])?
A: Its Viability is −0.413.

Q: What about the Viability (C2C12 myotubes; [8]) of the same molecule?
A: Its Viability is 0.627.

Q: And the ΔΨm [2, 7]?
A: The ΔΨm was 0.126.

Q: What about the ΔΨm [2, 8] of the same molecule?
A: The ΔΨm was 1.263.

Q: And the GE-HTS (OXPHOS gene expression; [7])?
A: The GE-HTS was −0.561.

Q: And the GE-HTS (OXPHOS gene expression; [8])?
A: The GE-HTS was 0.362.

Q: What does the source list for `CC(COc1ccccc1)N(CCCl)Cc1ccccc1` (stereo not shown) [phenoxybenzamine]?
A: nucOX (nuOXPHOS transcripts; [9]): −0.306; nucOX (nuOXPHOS transcripts; [8]): −1.077; MTT [1, 9]: −0.159; MTT [1, 8]: −1.049; ROS (reactive oxygen species; [9]): 0.444; ROS (reactive oxygen species; [8]): 0.256; mitoOX (mtOXPHOS transcripts; [9]): 0.167; mitoOX (mtOXPHOS transcripts; [8]): −1.462; cyt c (cytochrome c; [9]): −0.470; cyt c (cytochrome c; [8]): −0.188; Viability (C2C12 myotubes; [9]): −0.751; Viability (C2C12 myotubes; [8]): −0.906; ΔΨm [2, 9]: −0.422; ΔΨm [2, 8]: 0.021; GE-HTS (OXPHOS gene expression; [9]): −0.155; GE-HTS (OXPHOS gene expression; [8]): −1.302

Q: What does the source list for `CNC[C@H](O)c1cccc(O)c1` [phenylephrine]?
A: nucOX (nuOXPHOS transcripts): 0.120; MTT [1]: 1.105; ROS (reactive oxygen species): 0.474; mitoOX (mtOXPHOS transcripts): 0.536; cyt c (cytochrome c): −0.187; Viability (C2C12 myotubes): −0.349; ΔΨm [2]: −0.460; GE-HTS (OXPHOS gene expression): 0.254

Q: With `OC[C@H]1O[C@@H](Oc2cc(O)cc(/C=C/c3ccc(O)cc3)c2)[C@H](O)[C@@H](O)[C@@H]1O` [piceid] as the molecule, how does the “nucOX (composite Z-score)” value (nuOXPHOS transcripts; [10]) read?
A: Its value is 0.088.

Q: And the “MTT (composite Z-score)” value [1, 10]?
A: Its value is −0.826.

Q: What about the “ROS (composite Z-score)” value (reactive oxygen species; [10]) of the same molecule?
A: Its value is 0.862.

Q: What about the “mitoOX (composite Z-score)” value (mtOXPHOS transcripts; [10]) of the same molecule?
A: Its value is 0.124.

Q: And the “cyt c (composite Z-score)” value (cytochrome c; [10])?
A: Its value is 0.272.

Q: What about the “Viability (composite Z-score)” value (C2C12 myotubes; [10]) of the same molecule?
A: The value was −0.341.

Q: What about the “ΔΨm (composite Z-score)” value [2, 10] of the same molecule?
A: Its value is 0.088.

Q: And the “GE-HTS (composite Z-score)” value (OXPHOS gene expression; [10])?
A: The value was 0.110.

Q: Which results are given for `COc1cc([C@@H]2c3cc4c(cc3[C@H](O)[C@H]3COC(=O)[C@@H]23)OCO4)cc(OC)c1OC` [picropodophyllotoxin, reference compound]?
A: nucOX (nuOXPHOS transcripts; [4]): 1.581; MTT [1, 4]: −2.402; ROS Zscore (reactive oxygen species; [11]): −1.202; ROS (reactive oxygen species; [4]): −1.202; mitoOX (mtOXPHOS transcripts; [4]): 1.129; cyt c (cytochrome c; [4]): −1.445; Viability (C2C12 myotubes; [4]): −0.107; ΔΨm [2, 4]: −0.349; GEHTS_Zscore (OXPHOS gene expression; [11]): 2.259; GE-HTS (OXPHOS gene expression; [4]): 1.512

Q: How did the nucOX (nuOXPHOS transcripts; [8]) turn out when `CC(C)(O)[C@@H]1[C@H]2OC(=O)[C@@H]1[C@]1(O)C[C@H]3O[C@]34C(=O)O[C@H]2[C@]14C` [picrotin] was run?
A: The nucOX was 0.404.

Q: And the MTT [1, 8]?
A: The MTT was −1.155.

Q: And the ROS (reactive oxygen species; [8])?
A: The ROS was 0.917.

Q: And the mitoOX (mtOXPHOS transcripts; [8])?
A: The mitoOX was −0.167.

Q: What about the cyt c (cytochrome c; [8]) of the same molecule?
A: Its cyt c is 0.184.

Q: And the Viability (C2C12 myotubes; [8])?
A: Its Viability is −0.278.

Q: And the ΔΨm [2, 8]?
A: Its ΔΨm is −0.167.

Q: And the GE-HTS (OXPHOS gene expression; [8])?
A: Its GE-HTS is 0.253.

Q: `C=C(C)[C@@H]1[C@H]2OC(=O)[C@@H]1[C@]1(O)C[C@H]3O[C@]34C(=O)O[C@H]2[C@]14C` [picrotoxinin] was tested. Which nucOX (nuOXPHOS transcripts; [5]) did it give?
A: Its nucOX is −0.408.

Q: And the MTT [1, 5]?
A: The MTT was −1.611.

Q: What about the ROS (reactive oxygen species; [5]) of the same molecule?
A: Its ROS is 1.094.

Q: And the mitoOX (mtOXPHOS transcripts; [5])?
A: The mitoOX was −0.551.

Q: And the cyt c (cytochrome c; [5])?
A: The cyt c was 0.172.

Q: And the Viability (C2C12 myotubes; [5])?
A: The Viability was −1.116.

Q: And the ΔΨm [2, 5]?
A: The ΔΨm was −1.064.

Q: What about the GE-HTS (OXPHOS gene expression; [5]) of the same molecule?
A: Its GE-HTS is −0.512.
